{"source": "ChEMBL document CHEMBL6096690", "about": "“Synthesis and Biological Evaluation of Peripheral HTR2A Antagonists for Colorectal Cancer” (J Med Chem, 2025)", "key": {"[1]": {"assay": "Drug concentration in male ICR mouse brain at 10 mg/kg, ip measured after 1 hr", "type": "ADME, organism-based", "settings": "read-out: Ct"}, "[2]": {"assay": "Drug concentration in male ICR mouse brain at 10 mg/kg, ip measured after 3 hr", "type": "ADME, organism-based", "settings": "read-out: Ct"}, "[3]": {"assay": "Clearance in male mouse at 2 mg/kg, iv", "type": "ADME, organism-based", "settings": "in vivo"}, "HCT-116 [4]": {"system": "HCT-116", "assay": "Antitumor activity against human HCT-116 cells expressing firefly luciferase xenografted in male athymic nude BALB/c mouse assessed as tumor growth inhibition at 50 mg/kg, ip administered once daily by bioluminescence imaging analysis relative to control", "type": "functional", "settings": "read-out: TGI"}, "[5]": {"assay": "Microsomal stability in mouse liver microsomes assessed as parent compound remaining measured after 30 mins", "type": "ADME, Microsome", "settings": "read-out: Stability"}, "[6]": {"assay": "Microsomal stability in rat liver microsomes assessed as parent compound remaining measured after 30 mins", "type": "ADME, Microsome", "settings": "read-out: Stability"}, "[7]": {"molecular_target": "T1, 5-hydroxytryptamine receptor 2B (Homo sapiens, UniProt P41595)", "T1 sequence (P41595 whole entry)": "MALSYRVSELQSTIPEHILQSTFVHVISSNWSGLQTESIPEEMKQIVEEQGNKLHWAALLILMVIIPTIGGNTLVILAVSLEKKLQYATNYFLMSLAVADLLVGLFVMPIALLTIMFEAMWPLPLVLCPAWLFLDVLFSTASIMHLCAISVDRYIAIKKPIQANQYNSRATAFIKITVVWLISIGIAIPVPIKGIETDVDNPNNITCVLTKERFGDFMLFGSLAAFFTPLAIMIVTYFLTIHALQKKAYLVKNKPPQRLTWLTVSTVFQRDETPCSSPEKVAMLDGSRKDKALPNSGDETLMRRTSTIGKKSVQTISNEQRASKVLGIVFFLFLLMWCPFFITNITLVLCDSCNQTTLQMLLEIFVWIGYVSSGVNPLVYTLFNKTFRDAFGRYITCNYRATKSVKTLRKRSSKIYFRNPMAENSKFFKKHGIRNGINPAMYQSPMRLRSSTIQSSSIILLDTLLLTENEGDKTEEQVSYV", "assay": "Inhibition of 5HTR2B (unknown origin)"}, "[8]": {"molecular_target": "5-hydroxytryptamine receptor 7 (Homo sapiens) (UniProt P34969)", "sequence (P34969 whole entry)": "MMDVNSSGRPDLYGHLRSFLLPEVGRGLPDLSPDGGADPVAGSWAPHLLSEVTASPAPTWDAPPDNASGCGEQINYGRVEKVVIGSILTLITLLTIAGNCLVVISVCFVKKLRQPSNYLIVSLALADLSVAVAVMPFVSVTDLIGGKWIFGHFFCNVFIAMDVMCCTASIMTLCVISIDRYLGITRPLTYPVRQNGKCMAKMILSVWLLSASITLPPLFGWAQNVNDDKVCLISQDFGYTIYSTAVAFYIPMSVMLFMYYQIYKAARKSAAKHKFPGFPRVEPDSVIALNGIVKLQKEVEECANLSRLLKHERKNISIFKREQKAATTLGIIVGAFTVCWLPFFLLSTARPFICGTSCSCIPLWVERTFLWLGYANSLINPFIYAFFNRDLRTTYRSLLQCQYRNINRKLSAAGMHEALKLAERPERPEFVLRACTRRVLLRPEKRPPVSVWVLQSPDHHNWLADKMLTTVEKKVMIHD", "assay": "Inhibition of 5HTR7 (unknown origin) at 1 uM relative to control"}, "[9]": {"assay": "Microsomal stability in human liver microsomes assessed as parent compound remaining measured after 30 mins", "type": "ADME, Microsome", "settings": "read-out: Stability"}, "[10]": {"assay": "Toxicity in male athymic nude BALB/c mouse xenografted with human HCT-116 cells assessed as change in body weight at 1 to 10 mg/kg, ip administered once daily and measured after 19 days", "type": "organism-based", "settings": "in vivo, 456 h, dose 1-10 mg/kg, time 19 day"}, "[11]": {"assay": "Volume of distribution at steady state in male mouse at 2 mg/kg, iv", "type": "ADME, organism-based", "settings": "in vivo, read-out: Vdss"}, "SW480": {"system": "SW480", "assay": "Antiproliferative activity against human SW480 cells assessed as inhibition of cell proliferation incubated for 24 to 48 hrs by CCK-8 assay", "type": "functional, cell-based", "settings": "dose 1.5-12.5 µM, time 24-48 hrs"}, "HCT-116 [12]": {"system": "HCT-116", "assay": "Antitumor activity against human HCT-116 cells xenografted in male athymic nude BALB/c mouse assessed as increase in cleaved caspase 3 expression at 10 mg/kg, ip measured after 19 days by Immunohistochemical analysis", "type": "functional, organism-based", "settings": "time 19.0 day"}, "[13]": {"assay": "AUCinfinity in male mouse at 2 mg/kg, iv", "type": "ADME, organism-based", "settings": "in vivo"}, "SW-620 [14]": {"system": "SW-620", "assay": "Antitumor activity against human SW620 cells xenografted in male athymic nude BALB/c mouse assessed as tumor growth inhibition at 10 mg/kg, ip administered once daily relative to control", "type": "functional", "settings": "read-out: TGI"}, "SW-620 [15]": {"system": "SW-620", "assay": "Antiproliferative activity against human SW620 cells assessed as inhibition of cell proliferation at 1.5 to 12.5 uM by CCK-8 assay", "type": "functional, cell-based", "settings": "dose 1.5-12.5 µM, time 24-48 hrs"}, "[16]": {"molecular_target": "5-hydroxytryptamine receptor 6 (Homo sapiens) (UniProt P50406)", "sequence (P50406 whole entry)": "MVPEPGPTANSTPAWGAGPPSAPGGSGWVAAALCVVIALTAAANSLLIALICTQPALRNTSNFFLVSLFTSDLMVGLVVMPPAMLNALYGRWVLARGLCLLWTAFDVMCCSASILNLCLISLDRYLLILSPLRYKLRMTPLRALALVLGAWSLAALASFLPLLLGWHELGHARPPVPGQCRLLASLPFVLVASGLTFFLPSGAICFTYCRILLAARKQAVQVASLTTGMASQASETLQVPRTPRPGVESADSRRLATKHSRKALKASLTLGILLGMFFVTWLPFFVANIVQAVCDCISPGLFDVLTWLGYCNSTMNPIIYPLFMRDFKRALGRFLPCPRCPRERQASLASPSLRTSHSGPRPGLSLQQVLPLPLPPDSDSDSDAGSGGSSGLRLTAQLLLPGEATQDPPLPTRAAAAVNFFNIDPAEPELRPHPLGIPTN", "assay": "Inhibition of 5HTR6 (unknown origin) at 1 uM relative to control"}, "CYP1A2": {"molecular_target": "T2, CYP1A2 (Homo sapiens, UniProt P05177)", "T2 sequence (P05177 whole entry)": "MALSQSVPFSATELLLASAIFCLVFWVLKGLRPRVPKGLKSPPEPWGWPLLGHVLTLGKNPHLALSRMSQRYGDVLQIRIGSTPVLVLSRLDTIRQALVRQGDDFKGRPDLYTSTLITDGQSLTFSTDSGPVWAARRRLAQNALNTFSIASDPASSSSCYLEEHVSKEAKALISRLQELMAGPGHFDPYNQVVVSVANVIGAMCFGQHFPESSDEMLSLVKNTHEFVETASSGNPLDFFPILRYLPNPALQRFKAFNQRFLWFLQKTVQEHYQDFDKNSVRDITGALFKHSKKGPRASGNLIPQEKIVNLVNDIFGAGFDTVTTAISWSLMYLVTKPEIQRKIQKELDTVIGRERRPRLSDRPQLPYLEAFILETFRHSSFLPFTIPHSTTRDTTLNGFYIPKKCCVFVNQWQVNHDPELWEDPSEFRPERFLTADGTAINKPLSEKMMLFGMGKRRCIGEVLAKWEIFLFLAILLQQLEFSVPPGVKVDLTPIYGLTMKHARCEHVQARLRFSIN", "assay": "Inhibition of CYP1A2 (unknown origin) at 10 uM relative to control", "type": "ADME"}, "SW-620 [17]": {"system": "SW-620", "assay": "Induction of apoptosis in human SW620 cells assessed as upregulation of acetylated P53 protein expression at 5 to 10 uM incubated for 24 hrs by Western blotting analysis", "type": "functional, cell-based", "settings": "dose 5-10 µM"}, "[18]": {"molecular_target": "T1, 5-hydroxytryptamine receptor 2B", "assay": "Inhibition of 5HTR2B (unknown origin) at 1 uM relative to control"}, "HCT-116 [19]": {"system": "HCT-116", "assay": "Antitumor activity against human HCT-116 cells xenografted in male athymic nude BALB/c mouse assessed as tumor growth inhibition at 1 mg/kg, ip measured after 19 days relative to control", "type": "functional", "settings": "HCT-116, 456 h, time 19 day, read-out: TGI"}, "HCT-116 [20]": {"system": "HCT-116", "assay": "Induction of apoptosis in human HCT-116 cells assessed as increase in cleaved caspase 3 expression incubated for 24 hrs by Western blotting analysis", "type": "functional, cell-based", "settings": "dose 5-10 µM"}, "SW-620 [21]": {"system": "SW-620", "assay": "Antitumor activity against human SW620 cells xenografted in male athymic nude BALB/c mouse assessed as tumor growth inhibition administered intraperitoneally once daily relative to control", "type": "functional", "settings": "dose 10-50 mg/kg, route ip"}, "SW-620 [22]": {"system": "SW-620", "assay": "Antiproliferative activity against human SW620 cells assessed as inhibition of cell proliferation incubated for 24 to 48 hrs by CCK-8 assay", "type": "functional, cell-based", "settings": "dose 1.5-12.5 µM, time 24-48 hrs"}, "HCT-116 [23]": {"system": "HCT-116", "assay": "Induction of cell cycle arrest in human HCT-116 cells assessed as increase in sub-G1 phase cells incubated for 24 hrs by PI/RNase staining based flow cytometric analysis", "type": "functional", "settings": "dose 5-10 µM"}, "HCT-116 [24]": {"system": "HCT-116", "assay": "Induction of apoptosis in human HCT-116 cells assessed as increase in apoptotic cells at 5 to 10 uM incubated for 24 hrs by Annexin V/propidium iodide staining based FACS assay", "type": "functional, cell-based", "settings": "dose 5-10 µM"}, "HCT-116 [25]": {"system": "HCT-116", "assay": "Induction of apoptosis in human HCT-116 cells assessed as upregulation of acetylated P53 protein expression at 5 to 10 uM incubated for 24 hrs by Western blotting analysis", "type": "functional, cell-based", "settings": "dose 5-10 µM"}}, "note": "Calls of active or inactive are those of the source. No cut-off for these calls is given here."}
{"smiles": "Cl.Cl.O=C(NCc1ccc(OCC(O)CN2CCN(c3noc4cc(F)ccc34)CC2)cc1)N(Cc1ccc(F)cc1)C1CCNCC1", "note": "(configuration not stated)", "values": [{"measurement": "concentration at 1 h", "setting": "[1]", "result": "< 0.5", "unit": "ng/g"}, {"measurement": "concentration at 3 h", "setting": "[2]", "result": "< 0.5", "unit": "ng/g"}, {"measurement": "clearance", "setting": "[3]", "result": 67.7, "unit": "mL/min/kg"}, {"measurement": "inhibition in vivo at 50 mg/kg", "setting": "HCT-116 [4]", "result": 76.5, "unit": "%"}, {"measurement": "remaining at 0.5 h", "setting": "[5]", "result": "> 99", "unit": "%"}, {"measurement": "remaining at 0.5 h", "setting": "[6]", "result": 95.3, "unit": "%"}, {"measurement": "IC50", "setting": "[7]", "result": 621, "unit": "nM"}, {"measurement": "inhibition", "setting": "[8]", "result": 102, "unit": "%"}, {"measurement": "remaining at 0.5 h", "setting": "[9]", "result": "> 99", "unit": "%"}, {"measurement": "Activity", "setting": "[10]", "result": "Non-toxic"}, {"measurement": "Vd", "setting": "[11]", "result": 83.9, "unit": "L/kg"}, {"measurement": "Activity", "setting": "SW480", "result": "Dose-dependent-effect"}, {"measurement": "Activity", "setting": "HCT-116 [12]", "result": "Active"}, {"measurement": "AUC(0-inf)", "setting": "[13]", "result": 500, "unit": "ng·h/mL"}, {"measurement": "inhibition in vivo at 10 mg/kg", "setting": "SW-620 [14]", "result": 30.8, "unit": "%"}, {"measurement": "Activity", "setting": "SW-620 [15]", "result": "Time-dependent-effect"}, {"measurement": "inhibition", "setting": "[16]", "result": -5, "unit": "%"}, {"measurement": "inhibition at 10 µM", "setting": "CYP1A2", "result": 4.6, "unit": "%"}, {"measurement": "Activity", "setting": "SW-620 [17]", "result": "Active"}, {"measurement": "inhibition", "setting": "[18]", "result": 84.8, "unit": "%"}, {"measurement": "inhibition in vivo at 1 mg/kg", "setting": "HCT-116 [19]", "result": 38.8, "unit": "%"}, {"measurement": "Activity", "setting": "HCT-116 [20]", "result": "Dose-dependent-effect"}, {"measurement": "Activity", "setting": "SW-620 [21]", "result": "Dose-dependent-effect"}, {"measurement": "Activity", "setting": "SW-620 [22]", "result": "Dose-dependent-effect"}, {"measurement": "Activity", "setting": "HCT-116 [23]", "result": "Dose-dependent-effect"}, {"measurement": "Activity", "setting": "HCT-116 [24]", "result": "Active"}, {"measurement": "Activity", "setting": "HCT-116 [25]", "result": "Active"}]}
